Laboratory results taken from patent US7368422B2, “Semi-synthetic rearranged vancomycin/desmethyl-vancomycin-based glycopeptides with antibiotic activity” (Novartis Vaccines and Diagnostics Inc., priority 2005, dated 2008).
In brackets after ≈: the same amount, converted by molar mass.

Assays:
Assay type in all cases: cell-based
[1] = tested on: methicillin-susceptible Staphylococus aureus (MSSA); assay: MIC, NCCLS microdilution broth procedure, MSSA
Procedure: (§1) The following table identifies specific species of compounds according to the present invention and information concerning their associated antibacterial activity. The antibacterial activity of a compound in accordance with the present invention, chloro-biphenyl-rearranged norvacomycin (B), was tested and compared to unmodified vancomycin (Van) and norvancoycin (Nor). MIC (minimum inhibitory concentration) was measured according to NCCLS standards using the microdilution broth prodcedure. Serial dilutions of the compounds were placed in a 96-well microplate containing Mueller-Hinton medium. Based on absorbance of 600 nm, diluted overnight cultures were placed in the wells at a final concentration of 5×10^5 cfu/mL. The plate was then placed in a culture box at 35° C. The next day, MIC was determined by visual observation of the plates. The glycopeptides were tested against a variety of strains well known in the art for such testing, including methicillin-susceptible Staphylococus aureus (MSSA), methicillin-susceptible Staphylococus epidermidis (MSSE), methicillin-resistant Staphylococus aureus (MRSA), methicllin-resistant Staphylococus epidermidis (MRSE), and glycopeptide-intermediate Staphylococus aureus (GISA). Results are shown in the Table 1 as minimum inhibitory concentration (MIC) in units of μg/ml: […]

[2] = tested on: methicillin-resistant Staphylococus aureus (MRSA); assay: MIC, NCCLS microdilution broth procedure, MRSA
Procedure: as §1

[3] = tested on: methicillin-susceptible Staphylococus epidermidis (MSSE); assay: MIC, NCCLS microdilution broth procedure, MSSE
Procedure: as §1

[4] = tested on: methicllin-resistant Staphylococus epidermidis (MRSE); assay: MIC, NCCLS microdilution broth procedure, MRSE
Procedure: as §1

[5] = tested on: glycopeptide-intermediate Staphylococus aureus (GISA) (V); assay: MIC, NCCLS microdilution broth procedure, GISA (V)
Procedure: as §1

[6] = tested on: glycopeptide-intermediate Staphylococus aureus (GISA) (D); assay: MIC, NCCLS microdilution broth procedure, GISA (D)
Procedure: as §1

SMILES | minimum inhibitory concentration (MIC) ([1]; MSSA strain # 68) | minimum inhibitory concentration (MIC) ([1]; MSSA strain # 83) | minimum inhibitory concentration (MIC) ([2]; MRSA strain # 134) | minimum inhibitory concentration (MIC) ([2]; MRSA strain # 143) | minimum inhibitory concentration (MIC) ([3]; MSSE strain # 3) | minimum inhibitory concentration (MIC) ([3]; MSSE strain # 10) | minimum inhibitory concentration (MIC) ([4]; MRSE strain # 24) | minimum inhibitory concentration (MIC) ([4]; MRSE strain # 25) | minimum inhibitory concentration (MIC) ([4]; MRSE strain # 26) | minimum inhibitory concentration (MIC) ([5]; GISA (V) strain # 68) | minimum inhibitory concentration (MIC) ([5]; GISA (V) strain # 143) | minimum inhibitory concentration (MIC) ([6]; GISA (D) strain # 68) | minimum inhibitory concentration (MIC) ([6]; GISA (D) strain # 143)
CC(C)C[C@@H](N)C(=O)N[C@H]1C(=O)N[C@@H](CC(N)=O)C(=O)N[C@H]2C(=O)N[C@H]3C(=O)N[C@H](C(=O)N[C@H](C(=O)O)c4cc(O)cc(O)c4-c4cc3ccc4O)[C@H](O)c3ccc(c(Cl)c3)Oc3cc2cc(c3O[C@@H]2O[C@H](CO)[C@@H](O)[C@H](O)[C@H]2O[C@H]2C[C@](C)(N)[C@H](O)[C@H](C)O2)Oc2ccc(cc2Cl)[C@H]1O [Nor, norvancoycin] | 2 µg/mL (≈ 1.39 µM) | 2 µg/mL (≈ 1.39 µM) | 2 µg/mL (≈ 1.39 µM) | 2 µg/mL (≈ 1.39 µM) | 2 µg/mL (≈ 1.39 µM) | 2 µg/mL (≈ 1.39 µM) | 2 µg/mL (≈ 1.39 µM) | 2 µg/mL (≈ 1.39 µM) | 2 µg/mL (≈ 1.39 µM) | 4 µg/mL (≈ 2.79 µM) | 8 µg/mL (≈ 5.57 µM) | 4 µg/mL (≈ 2.79 µM) | 4 µg/mL (≈ 2.79 µM)
CN[C@H](CC(C)C)C(=O)N[C@H]1C(=O)N[C@@H](CC(N)=O)C(=O)N[C@H]2C(=O)N[C@H]3C(=O)N[C@H](C(=O)N[C@H](C(=O)O)c4cc(O)cc(O)c4-c4cc3ccc4O)[C@H](O)c3ccc(c(Cl)c3)Oc3cc2cc(c3O[C@@H]2O[C@H](CO)[C@@H](O)[C@H](O)[C@H]2O[C@H]2C[C@](C)(N)[C@H](O)[C@H](C)O2)Oc2ccc(cc2Cl)[C@H]1O [Van, vancomycin] | 2 µg/mL (≈ 1.38 µM) | 2 µg/mL (≈ 1.38 µM) | 2 µg/mL (≈ 1.38 µM) | 2 µg/mL (≈ 1.38 µM) | 2 µg/mL (≈ 1.38 µM) | 2 µg/mL (≈ 1.38 µM) | 2 µg/mL (≈ 1.38 µM) | 2 µg/mL (≈ 1.38 µM) | 2 µg/mL (≈ 1.38 µM) | 8 µg/mL (≈ 5.52 µM) | 8 µg/mL (≈ 5.52 µM) | 8 µg/mL (≈ 5.52 µM) | 4 µg/mL (≈ 2.76 µM)
